Assay results reported in patent publication US8404703B2, “Medicinal compositions containing aspirin” (Daiichi Sankyo Company, Limited, priority 2000, dated 2013).

System: thrombogenesis or thrombus formation
Experiment: Inhibitory activity against thrombogenesis, modified arterio-venous shunt thrombosis model in rats
Format: in vivo, male Sprague Dawley rats
Conditions: oral, shunt circulation started 2 h after administration, 30 min circulation, average ±SE (n=6)
Description: As the test animals, male Sprague Dawley rats of 7 weeks old were purchased from SLC Japan and 6 rats per group were used.
2-Acetoxy-5-(α-cyclopropylcarbonyl-2-fluorobenzyl)-4,5,6,7-tetrahydrothieno[3,2-c]pyridine was synthesized according to the method described in the Specification of Japanese Patent Application Publication No. Hei 6-41139 and was used, while aspirin was purchased from Sigma Chemical Co. and was used. Both compounds were suspended in 5% (w/v) gum arabic solution, and were diluted so as to be 1 ml/kg of administration volume and were orally administered.
The inhibitory activities of the compounds against thrombogenesis or thrombus formation were evaluated in the modified arterio-venous shunt thrombosis model in rats, which was described by Umetsu et al. [Thromb. Haemost., 39, 74-83 (1978)].
The shunt tube was prepared as follows; i.e., both sides of a medical silicon tube of 12 cm length [inner diameter: 1.5 mm, outer diameter: 2.5 mm, purchased from KANEKA Medix Co., Ltd] were connected each to a polyethylene tube of 7 cm length [inner diameter: 0.5 mm, outer diameter: 1.0 mm, purchased from Natsume Seisakusho Co., Ltd.] covered with silicon via a medical silicon tube of 0.7 cm length [inner diameter: 1.0 mm, outer diameter: 1.5 mm, KANEKA Medix Co., Ltd] as connector. A surgical suture of 10 cm length was placed in the silicon tube of 12 cm length.
The animal was anesthetized with an intraperitoneal injection of 40 mg/kg of pentobarbital sodium (purchased from Abbott Laboratories Inc.), and the jugular of one side and the carotid of the other side were exposed. The arteriovenous shunt was made by cannulation of a shunt tube filled with heparin solution [[…], purchased from Fuso Pharmaceutical Co., Ltd] into the carotid and the jugular which had been previously exposed.
The test compounds were orally administered and the blood was started to circulate into the shunt area two hours after the administration. Thirty minutes after the circulation was started, the shunt tube was removed, and the thrombus adsorbed on the surgical suture was weighed. The results in the table are expressed as the average weight ±SE (n=6).

Compound	Inhibition Rate (Aspirin 10 mg/kg alone)	Thrombus Weight (Aspirin 10 mg/kg alone)	Inhibition Rate (Compound A 0.3 mg/kg alone)	Thrombus Weight (Compound A 0.3 mg/kg alone)	Inhibition Rate (Compound A 0.6 mg/kg alone)	Thrombus Weight (Compound A 0.6 mg/kg alone)
CC(=O)Oc1ccccc1C(=O)O [Aspirin, aspirin]	12.3 ± 4.4%	46.6 ± 2.8 mg	–	–	–	–
CC(=O)Oc1cc2c(s1)CCN(C(C(=O)C1CC1)c1ccccc1F)C2 (stereo not drawn) [Compound A, 2-Acetoxy-5-(α-cyclopropylcarbonyl-2-fluorobenzyl)-4,5,6,7-tetrahydrothieno[3,2-c]pyridine]	–	–	17.0 ± 4.1%	43.5 ± 2.1 mg	28.3 ± 4.0%	37.5 ± 2.1 mg
